Converted amounts (≈) assume the structure as drawn.
What was measured:
[1] = tested on: Staph aureus B4 (pen resis); assay: MIC, veterinary bacteria; type: cell-based; settings: Staphylococcus aureus, veterinary bacteria (Table 2), read-out: MIC
[2] = Serum binding by ultrafiltration; type: in vitro ADME, pig; settings: pig, serum, compounds at 8 mcg/ml, microbiological assay (B. subtilis ATCC 6633), read-out: % bound to pig serum (converted)
Protocol: Serum binding was assessed by ultrafiltration of procine serum containing compounds at 8 mcg/ml, and through an Amicon CF50A ultrafiltration cone. Separation of ultrafiltrate was achieved by centrifugation.

Strep dysgalaciae SPD1 = assay: MIC, veterinary bacteria; type: cell-based; settings: veterinary bacteria (Table 2), read-out: MIC
[3] = tested on: Corynebacterium pyogenes CY1; assay: MIC, veterinary bacteria; type: cell-based; settings: veterinary bacteria (Table 2), read-out: MIC
E coli NCTC 10418 = assay: MIC, veterinary bacteria; type: cell-based; settings: veterinary bacteria (Table 2), read-out: MIC
[4] = tested on: Erysipelothrix rhusiopathiae NCTC 8163; assay: MIC, veterinary bacteria; type: cell-based; settings: NCTC8163, veterinary bacteria (Table 2), read-out: MIC
M fermentans MWKL4 [5] = assay: MIC, anti-mycoplasmal, Friis' broth microtiter method; type: cell-based; settings: read-out: in vitro MIC, BROTH
Past Haemolytica PA5 = assay: MIC, veterinary bacteria; type: cell-based; settings: veterinary bacteria (Table 2), read-out: MIC
M suipneumoniae Str 11 = assay: MIC, anti-mycoplasmal, Friis' broth microtiter method; type: cell-based; settings: read-out: in vitro MIC, BROTH
[6] = tested on: M bovigenitalium ATCC 14173; assay: MIC, anti-mycoplasmal, serial dilution in Friis' agar; type: cell-based; settings: read-out: in vitro MIC, AGAR
M dispar NCTC 10125 = assay: MIC, anti-mycoplasmal, Friis' broth microtiter method; type: cell-based; settings: read-out: in vitro MIC, BROTH
M dispar H225 = assay: as above; type: cell-based; settings: read-out: in vitro MIC, BROTH
M pneumoniae ATCC 15492 [7] = assay: as above; type: cell-based; settings: read-out: in vitro MIC, BROTH
Strep agalactiae SPA1 = assay: MIC, veterinary bacteria; type: cell-based; settings: veterinary bacteria (Table 2), read-out: MIC
Past multocida PA2 = assay: MIC, veterinary bacteria; type: cell-based; settings: veterinary bacteria (Table 2), read-out: MIC
Past multocida PA1 = assay: MIC, veterinary bacteria; type: cell-based; settings: veterinary bacteria (Table 2), read-out: MIC
S dublin S7 = assay: MIC, veterinary bacteria; type: cell-based; settings: veterinary bacteria (Table 2), read-out: MIC
[8] = tested on: M suipneumoniae J2206/183b; assay: MIC, anti-mycoplasmal, Friis' broth microtiter method; type: cell-based; settings: read-out: in vitro MIC, BROTH
M synoviae ATCC 25204 = assay: MIC, anti-mycoplasmal, serial dilution in Friis' agar; type: cell-based; settings: read-out: in vitro MIC, AGAR
M hyosynoviae ATCC 25591 = assay: as above; type: cell-based; settings: read-out: in vitro MIC, AGAR
S typhimurium S18 = assay: MIC, veterinary bacteria; type: cell-based; settings: veterinary bacteria (Table 2), read-out: MIC
M arthritidis ATCC 14124 = assay: MIC, anti-mycoplasmal, serial dilution in Friis' agar; type: cell-based; settings: read-out: in vitro MIC, AGAR
M fermentans MWKL4 [9] = assay: as above; type: cell-based; settings: read-out: in vitro MIC, AGAR
[10] = tested on: Staph aureus 152 (pen sens); assay: MIC, veterinary bacteria; type: cell-based; settings: Staphylococcus aureus, veterinary bacteria (Table 2), read-out: MIC
M hyorhinis ATCC 23234 = assay: MIC, anti-mycoplasmal, serial dilution in Friis' agar; type: cell-based; settings: read-out: in vitro MIC, AGAR
Bord bronchisptica BO9 = assay: MIC, veterinary bacteria; type: cell-based; settings: veterinary bacteria (Table 2), read-out: MIC
M pulmonis JB [11] = assay: MIC, anti-mycoplasmal, Friis' broth microtiter method; type: cell-based; settings: read-out: in vitro MIC, BROTH
M pneumoniae 427a [12] = assay: as above; type: cell-based; settings: read-out: in vitro MIC, BROTH
[13] = tested on: Strep suis (group D) SPS11; assay: MIC, veterinary bacteria; type: cell-based; settings: veterinary bacteria (Table 2), read-out: MIC
M gallisepticum S6 = assay: MIC, anti-mycoplasmal, serial dilution in Friis' agar; type: cell-based; settings: read-out: in vitro MIC, AGAR
Bord bronchiseptica BO8 = assay: MIC, veterinary bacteria; type: cell-based; settings: veterinary bacteria (Table 2), read-out: MIC
Strep uberis SPU1 = assay: MIC, veterinary bacteria; type: cell-based; settings: veterinary bacteria (Table 2), read-out: MIC
M pneumoniae ATCC 15492 [14] = assay: MIC, anti-mycoplasmal, serial dilution in Friis' agar; type: cell-based; settings: read-out: in vitro MIC, AGAR
M pulmonis JB [15] = assay: as above; type: cell-based; settings: read-out: in vitro MIC, AGAR
Staph aureus Oxford = assay: MIC, veterinary bacteria; type: cell-based; settings: Staphylococcus aureus, veterinary bacteria (Table 2), read-out: MIC
M pneumoniae 427a [16] = assay: MIC, anti-mycoplasmal, serial dilution in Friis' agar; type: cell-based; settings: read-out: in vitro MIC, AGAR
E coli E1 = assay: MIC, veterinary bacteria; type: cell-based; settings: veterinary bacteria (Table 2), read-out: MIC
M alkalescens NCTC 10135 = assay: MIC, anti-mycoplasmal, serial dilution in Friis' agar; type: cell-based; settings: read-out: in vitro MIC, AGAR
[17] = Mean serum concentration in neonatal piglets after intramuscular or oral administration; type: in vivo; settings: pig, 50 mg/kg; for concentration at 1 h: 60'
Protocol: e) Mean serum concentration in neonatal piglets of Examples 4 and 5 after intramuscular or oral administration at 50 mg/kg
Blood levels were assessed in neonatal piglets (2 to 4 animals per group and man bodyweights about 2 kg). The dose was 50 mg/kg (dose solution = 25 mg/ml in 25% ethanol). Doses were given by intramuscular injection and orally by stomach tube. Piglets were bled at intervals up to 8 and at 24 hours, and serum assayed microbiologically (B. subtilis ATCC 6633).

`CC(=O)COC(=O)C=C(C)CC1OCC(CC2OC2C(C)C(C)O)C(O)C1O` (stereo not shown) [Example 1, Acetvlmethvl Monate A] gave an MIC [1] of 2.5 µg/mL (≈ 6.24 µM), a fraction unbound [2] of 0.772 and an MIC (Strep dysgalaciae SPD1) of 5 µg/mL (≈ 12.5 µM). For the same compound, the MIC [3] was > 80 µg/mL, the MIC (E coli NCTC 10418) was > 80 µg/mL and the MIC [4] was > 80 µg/mL. It also gave an MIC (M fermentans MWKL4 [5]) of 0.078 µg/mL (≈ 0.195 µM), an MIC (Past Haemolytica PA5) of 5 µg/mL (≈ 12.5 µM) and an MIC (M suipneumoniae Str 11) of 0.625 µg/mL (≈ 1.56 µM). The MIC [6] was 0.078 µg/mL (≈ 0.195 µM), the MIC (M dispar NCTC 10125) was 0.156 µg/mL (≈ 0.39 µM) and the MIC (M dispar H225) was 0.156 µg/mL (≈ 0.39 µM). For the same compound, the MIC (M pneumoniae ATCC 15492 [7]) was > 10 µg/mL, the MIC (Strep agalactiae SPA1) was 5 µg/mL (≈ 12.5 µM) and the MIC (Past multocida PA2) was 0.312 µg/mL (≈ 0.779 µM). The MIC (Past multocida PA1) was 0.625 µg/mL (≈ 1.56 µM), the MIC (S dublin S7) was > 80 µg/mL and the MIC [8] was 1.25 µg/mL (≈ 3.12 µM). For the same compound, the MIC (M synoviae ATCC 25204) was < 0.02 µg/mL, the MIC (M hyosynoviae ATCC 25591) was 1.25 µg/mL (≈ 3.12 µM) and the MIC (S typhimurium S18) was > 80 µg/mL. For the same compound, the MIC (M arthritidis ATCC 14124) was > 10 µg/mL, the MIC (M fermentans MWKL4 [9]) was 0.312 µg/mL (≈ 0.779 µM) and the MIC [10] was 2.5 µg/mL (≈ 6.24 µM). It also gave an MIC (M hyorhinis ATCC 23234) of 2.5 µg/mL (≈ 6.24 µM), an MIC (Bord bronchisptica BO9) of 40 µg/mL (≈ 99.9 µM) and an MIC (M pulmonis JB [11]) of 0.156 µg/mL (≈ 0.39 µM). For the same compound, the MIC (M pneumoniae 427a [12]) was > 10 µg/mL, the MIC [13] was 40 µg/mL (≈ 99.9 µM) and the MIC (M gallisepticum S6) was > 10 µg/mL. The MIC (Bord bronchiseptica BO8) was > 80 µg/mL, the MIC (Strep uberis SPU1) was 2.5 µg/mL (≈ 6.24 µM) and the MIC (M pneumoniae ATCC 15492 [14]) was > 10 µg/mL. The MIC (M pulmonis JB [15]) was 0.156 µg/mL (≈ 0.39 µM), the MIC (Staph aureus Oxford) was 2.5 µg/mL (≈ 6.24 µM) and the MIC (M pneumoniae 427a [16]) was 10 µg/mL (≈ 25 µM). For the same compound, the MIC (E coli E1) was > 80 µg/mL and the MIC (M alkalescens NCTC 10135) was 0.039 µg/mL (≈ 0.0974 µM).
For `CC(=CC(=O)OCCCC(=O)c1cccs1)CC1OCC(CC2OC2C(C)C(C)O)C(O)C1O` (stereo not shown) [Example 4, 4(1-Thienyl-2-ylbutan-1-onyl) monate A], the MIC [1] was 0.156 µg/mL (≈ 0.314 µM), the fraction unbound [2] was 0.012 and the MIC (Strep dysgalaciae SPD1) was 0.156 µg/mL (≈ 0.314 µM). The MIC [3] was > 80 µg/mL, the MIC (E coli NCTC 10418) was > 80 µg/mL and the MIC [4] was 20 µg/mL (≈ 40.3 µM). For the same compound, the MIC (M fermentans MWKL4 [5]) was < 0.02 µg/mL, the MIC (Past Haemolytica PA5) was 5 µg/mL (≈ 10.1 µM) and the concentration at 10 min ([17]; im) was 9000 ng/mL. It also gave a concentration at 20 min ([17]; im) of 8900 ng/mL, a concentration at 40 min ([17]; im) of 10000 ng/mL and a concentration at 1 h ([17]; im) of 8500 ng/mL. For the same compound, the concentration at 2 h ([17]; im) was 3300 ng/mL, the concentration at 3 h ([17]; im) was 1900 ng/mL and the concentration at 4 h ([17]; im) was 1600 ng/mL. The concentration at 6 h ([17]; im) was 830 ng/mL, the concentration at 8 h ([17]; im) was 710 ng/mL and the concentration at 24 h ([17]; im) was < 120 ng/mL. For the same compound, the concentration at 10 min ([17]; po) was 5300 ng/mL, the concentration at 20 min ([17]; po) was 5500 ng/mL and the concentration at 40 min ([17]; po) was 6500 ng/mL. It also gave a concentration at 1 h ([17]; po) of 5700 ng/mL, a concentration at 2 h ([17]; po) of 2400 ng/mL and a concentration at 3 h ([17]; po) of 1400 ng/mL. The concentration at 4 h ([17]; po) was 1400 ng/mL, the concentration at 6 h ([17]; po) was 770 ng/mL and the concentration at 8 h ([17]; po) was 740 ng/mL. The concentration at 24 h ([17]; po) was 150 ng/mL, the MIC (M suipneumoniae Str 11) was 0.078 µg/mL (≈ 0.157 µM) and the MIC (M dispar NCTC 10125) was 0.039 µg/mL (≈ 0.0785 µM). The MIC (M dispar H225) was < 0.02 µg/mL, the MIC (M pneumoniae ATCC 15492 [7]) was 0.312 µg/mL (≈ 0.628 µM) and the MIC (Strep agalactiae SPA1) was 0.312 µg/mL (≈ 0.628 µM). For the same compound, the MIC (Past multocida PA2) was 0.07 µg/mL (≈ 0.141 µM), the MIC (Past multocida PA1) was 0.312 µg/mL (≈ 0.628 µM) and the MIC (S dublin S7) was > 80 µg/mL. The MIC [8] was 0.078 µg/mL (≈ 0.157 µM), the MIC (S typhimurium S18) was > 80 µg/mL and the MIC [10] was 0.156 µg/mL (≈ 0.314 µM). The MIC (Bord bronchisptica BO9) was 5 µg/mL (≈ 10.1 µM), the MIC (M pulmonis JB [11]) was < 0.02 µg/mL and the MIC (M pneumoniae 427a [12]) was 0.312 µg/mL (≈ 0.628 µM). The MIC [13] was 2.5 µg/mL (≈ 5.03 µM), the MIC (Bord bronchiseptica BO8) was 40 µg/mL (≈ 80.5 µM) and the MIC (Strep uberis SPU1) was < 0.019 µg/mL. For the same compound, the MIC (Staph aureus Oxford) was 0.156 µg/mL (≈ 0.314 µM) and the MIC (E coli E1) was > 80 µg/mL.

Reference: patent EP0025288A1, “Derivatives of monic acid, processes for their preparation, compositions containing them and their preparation” (priority 1979, dated 1981)
